The values below come from patent US5935969A, “Pyrido-thiopyrandoinazoles with antitumor activity” (University of Vermont, priority 1998, dated 1999).

≈ marks a conversion by molar mass, not a printed value. Like-named read-outs stand apart in the source and are kept apart here.

The conditions of series [1]: W.H.O. grade; phase I and phase II clinical trials; cited from earlier work.
Series [2] concerns LoVo. Description: MTT cytotoxicity, human colon adenocarcinoma LoVo. Type of series: cell-based. The conditions noted are these: read-out: IC50 LoVo (concentration causing 50% inhibition of tumor cells growth). How it is done: (§1) The evaluation of the biological activity for the compounds of this invention was performed "in vitro" and "in vivo" following the protocols developed by the U.S. National Cancer Institute.
(§2) The evaluation of the "in vitro" cytotoxic activity of the compounds of the invention was performed using the following cell lines: a murine sarcoma (S-180) and its subline expressing multidrug resistance (S-180/A-10), a leukemia (L1210), a human colon adenocarcinoma cell line (LoVo) isolated from a metastatic nodule and its subline expressing multidrug resistance. This latter subline is resistant to a number of antitumor agents, among which are doxorubicin, VP-16 and vincristine.
(§3) The columns headed L1210, S180 LoVo and LoVo/Dx contain the IC50 values against said tumor cell lines, as above described.
(§4) CYTOTOXICITY ON LOVO AND LOVO/DX WAS DETERMINED BY MTT ASSAY FOLLOWING 1

The conditions of series [3]: rat; cited from earlier work.
For series [4] the following is noted: humans; cited from earlier work.
In series [5] the test system is LoVo/Dx. Nature of the series: MTT cytotoxicity, multidrug-resistant subline LoVo/DX. The format is cell-based, human. The conditions noted are these: for IC50: Homo sapiens, read-out: IC50 LoVo/Dx (concentration causing 50% inhibition of tumor cells growth). As for the experimental part:
as §1, §2
The columns headed L1210, S180 LoVo and LoVo/Dx contain the IC50 values against said tumor cell lines, as above described. […]
as §4

Series [6] deals with L1210. Nature of the series: MTT cytotoxicity, leukemia L1210. The format is cell-based. The note with it: Mus musculus, MTT assay, read-out: IC50 L1210 (concentration causing 50% inhibition of tumor cells growth). How it is done: as §1, §2, §3
Background: Formazan colour is commonly taken as a measure of viable cells.

For series [7], the system named is S180. Description: MTT cytotoxicity, murine sarcoma S-180. The format is cell-based. The note with it: Mus musculus; murine sarcoma S-180, MTT assay; read-out: IC50 S180 (concentration causing 50% inhibition of tumor cells growth). How it is done: as §1, §2, §3
Series [8] relates to LoVo/Dx. The conditions noted are these: in words; cited from earlier work.
For series [9] the following is noted: cited from earlier work.
Series [10] has as its system cell histotypes developing resistance against doxorubicin mediated by overexpression of glycoprotein P. The conditions noted are these: MDR; cited from earlier work.
For series [11] the following is noted: in vivo; cited from earlier work.
The subject of series [12] is advanced breast cancer, acute leukemia and lymphoma. The note with it: cited from earlier work.
The conditions of series [13]: i.p., non-tumor bearing rats, equieffective antitumor dosages; cited from earlier work.
Where [14] appears, read: MTT assay, following 1 hour of drug exposure.
Where [15] appears, read: LoVo/Dx multidrug-resistant subline, MTT assay, following 1 hour of drug exposure.
Where [16] appears, read: in animals, versus mitoxantrone.

For `O=C1c2c(O)cccc2-c2nn(CCNCCO)c3ccc(NCCNCCO)c1c23` [CI-941], in [1], the “leukopenia (dose limiting)” value is “grade 3 and 4”; the “neutropenia (dose limiting)” value is reported as “grade 4”. In series [2] (1 h), the IC50 came to 0.053 mg/L (≈ 0.125 µM). Besides, the nephrotoxicity entry in series [3] is on record as “marked nephrotoxicity”. For the same compound, in series [4], the cardiotoxicity entry is on record as “irreversible cardiotoxicity” and the “symptoms of cardiac failure or acute cardiac events” value is “no symptoms of cardiac failure or acute cardiac events”. For the same compound, the IC50 in series [5] (LoVo/DX, 1 h) was 44.5 mg/L (≈ 105 µM). Moreover, the “activity in the resistant cell line” value in series [5] (LoVo/DX, in words) is reported as “loses completely its activity”.
Take `CN(C)CCn1nc2c3c(c([N+](=O)[O-])ccc31)Sc1ncccc1-2` [Example 1]: the IC50 turned out to be 0.08 mg/L (≈ 0.234 µM) in [6] and 0.17 mg/L (≈ 0.498 µM) in [7].
The corresponding values for `CN(C)CCn1nc2c3c(c([N+](=O)[O-])ccc31)Sc1cnccc1-2` [Example 3, N,N-dimethyl-5-nitro-2H-pyrido[4',3':5,6]thiopyrano[4,3,2-cd]indazole-2-ethanamine] are 0.05 mg/L (≈ 0.146 µM) and 0.14 mg/L (≈ 0.41 µM).
The matching figures for `CN(C)CCn1nc2c3c(c([N+](=O)[O-])ccc31)Sc1ccncc1-2` [Example 4, N,N-dimethyl-5-nitro-2H-pyrido[3',4':5,6]thiopyranol[4,3,2cd]indazole-2-ethanamine]: 0.00062 mg/L (≈ 0.00182 µM) and 0.0032 mg/L (≈ 0.00937 µM).
With `CN(C)CCn1nc2c3c(c(N)ccc31)Sc1ccncc1-2` [Example 5, N,N-dimethyl-5-amino-2H-pyrido[3',4':5,6]thiopyrano[4,3,2-cd]indazole-2-ethanamine], the IC50 in series [2] (setting [14]) worked out at 0.016 mg/L (≈ 0.0514 µM); in series [5] (setting [15]), 0.027 mg/L (≈ 0.0867 µM); in series [6], 0.003 mg/L (≈ 0.00963 µM); in [7], 0.0066 mg/L (≈ 0.0212 µM).
For `CN(C)CCNc1ccc2c3c(nn2CCN(C)C)-c2cccnc2Sc13` [Example 6, N'-[2-[2-(dimethylamino)ethyl]-2H-pyrido[3',2':5,6]thiopyrano[4,3,2-cd]indazol-5-yl]--N,N-dimethyl-1,2-ethanediamine], the IC50 in [2] (setting [14]) was 2.4 mg/L (≈ 6.27 µM); in series [5] (setting [15]) it was 2.6 mg/L (≈ 6.8 µM); in series [6] it was 0.008 mg/L (≈ 0.0209 µM); in series [7], 0.028 mg/L (≈ 0.0732 µM).
`CN(C)CCn1nc2c3c(c(NCCN)ccc31)Sc1ncccc1-2` [Example 7, N'-[2-[2-(dimethylamino)lethyl]-2H-pyrido[3',2':5,6]thiopyrano[4,3,2-cd]indazol-5-yl]l-1,2-ethanediamine]: the IC50 in [2] (setting [14]) was 0.027 mg/L (≈ 0.0762 µM); in [5] (setting [15]), 16.8 mg/L (≈ 47.4 µM); in series [6] it was 0.0125 mg/L (≈ 0.0353 µM); in series [7], 0.058 mg/L (≈ 0.164 µM).
With `CN(C)CCn1nc2c3c(c(NCCN)ccc31)Sc1ccncc1-2` [Example 8], the IC50 was found to be 0.008 mg/L (≈ 0.0226 µM) in series [2] (setting [14]), 0.26 mg/L (≈ 0.733 µM) in series [5] (setting [15]), 0.0016 mg/L (≈ 0.00451 µM) in series [6] and 0.0029 mg/L (≈ 0.00818 µM) in series [7].
With `COc1cc(C2c3cc4c(cc3C(OC3OC5COC(C)OC5C(O)C3O)C3COC(=O)C23)OCO4)cc(OC)c1O` (stereo not shown) [VP-16], the “resistance of the LoVo/DX subline” value in series [8] is given as “resistant”.
`O=C1c2ccccc2C(=O)c2c(NCCNCCO)ccc(NCCNCCO)c21` [ametantrone, 1,4-bis[(2-(2-hydroxyethylamino)ethyl)amino]anthracene-9,10-dione]: in series [9] (setting [16]), the “cardiotoxicity relative to mitoxantrone” value is reported as “about 10 -fold less” and the “potency relative to mitoxantrone” value is “about 10 -fold less”. Further, the “cross-resistance to doxorubicin-resistant cell histotypes” value in [10] is “cross-resistance”. The myelodepressive toxicity result in series [11] is given as “remarkable myelodepressive toxicity”.
On to `COc1cccc2c1C(=O)c1c(O)c3c(c(O)c1C2=O)C[C@@](O)(C(=O)CO)C[C@@H]3O[C@H]1C[C@H](N)[C@H](O)[C@H](C)O1` [doxorubicin, reference compound], for which, in series [8], the “accumulation of doxorubicin in LoVo/DX” value is given as “reduced accumulation” and the “resistance of the LoVo/DX subline” value is on record as “resistant”. In series [2] (1 h), the IC50 was found to be 0.58 mg/L (≈ 1.07 µM). In addition, the IC50 in series [5] (LoVo/DX, 1 h) turned out to be 53.8 mg/L (≈ 99 µM).
As for `CN(C)CCn1nc2c3c(c(NCCN)ccc31)Sc1cnccc1-2` [ex.9-cpd 30, N'-[2-[2-(dimethylamino)ethyl]-2H-pyrido[4',3':5,6]thiopyrano[4,3,2-cd]indazol-5-yl]-1,2-ethanediamine], the IC50 in series [6] was 0.014 mg/L (≈ 0.0395 µM); in series [7], 0.058 mg/L (≈ 0.164 µM).
The corresponding values for `CN(C)CCn1nc2c3c(c(NC(=O)CN)ccc31)Sc1ncccc1-2` [ex. 10-cpd 1, N'-[2-(2-dimethylamino)ethyl]-5-(2'-amino-acetylamino)-2H-pyrido[3',2':5,6]thiopyrano [4,3,2-cd]indazole] are 0.03 mg/L (≈ 0.0814 µM) and 0.22 mg/L (≈ 0.597 µM).
In the case of `CN(C)CCn1nc2c3c(c(NC(=O)CN)ccc31)Sc1ccncc1-2` [ex. 10-cpd 2, N'-[2-(2-dimethylamino)ethyl]-5-(2'-amino-acetylamino)-2H-pyrido[3',4':5,6]thiopyrano [4,3,2-cd]indazole], the IC50 in [2] (setting [14]) was 0.04 mg/L (≈ 0.109 µM); in [5] (setting [15]) it was 0.21 mg/L (≈ 0.57 µM).
For the compound `CCN(CC)CCn1nc2c3c(c([N+](=O)[O-])ccc31)Sc1ccncc1-2` [ex. 11-cpd 1, N,N-diethyl-5-nitro-2 H-pyrido[3',4': 5,6]thiopyrano[4,3,2-cd]indazole-2-ethanamine], the results for the IC50 in [6] and in series [7] were 0.00061 mg/L (≈ 0.00165 µM) and 0.0031 mg/L (≈ 0.00839 µM), respectively.
Take `CCN(CC)CCn1nc2c3c(c([N+](=O)[O-])ccc31)Sc1ncccc1-2` [ex. 11-cpd 2, N,N-diethyl-5-nitro-2H-pyrido[3',2':5,6]thiopyrano[4,3,2-cd]indazole-2-ethanamine]: the IC50 in series [6] came to 0.2 mg/L (≈ 0.541 µM); in series [7], 0.22 mg/L (≈ 0.595 µM).
For `CCN(CC)CCn1nc2c3c(c(N)ccc31)Sc1ccncc1-2` [ex. 12-cpd 1, N,N-diethyl-5-amino-2H-pyrido[3',4':5,6]thiopyrano[4,3,2-cd]indazole-2-ethanamine], the IC50 in series [2] (setting [14]) came out at 0.036 mg/L (≈ 0.106 µM); in [5] (setting [15]), 0.094 mg/L (≈ 0.277 µM); in series [6], 0.0015 mg/L (≈ 0.00442 µM); in [7] it was 0.0031 mg/L (≈ 0.00913 µM).
In the case of `O=C1c2c(O)ccc(O)c2C(=O)c2c(NCCNCCO)ccc(NCCNCCO)c21` [mitoxantrone, 5,8-dihydroxy-1,4-bis[(2-(2-hydroxyethylamino)ethyl)amino]anthracene-9,10-dione], the clinical activity result in [12] (clinical trials, advanced breast cancer, acute leukemia and lymphoma) is listed as “particularly promising activity”. For the same compound, in series [12] (mostly in patients previously treated with doxorubicin), the clinical cardiotoxicity result is given as “some clinical cardiotoxicity has been observed”. Moreover, the “cardiotoxicity in comparison to doxorubicin” value in series [9] (animal studies) was “diminished cardiotoxicity in comparison to doxorubicin”. The IC50 worked out at 0.024 mg/L (≈ 0.054 µM) in [2] (1 h) and 0.67 mg/L (≈ 1.51 µM) in series [5] (LoVo/DX, 1 h). In addition, in series [13], the delayed toxicity result is reported as “a delayed toxicity is observed only with mitoxantrone”. In series [11], the myelodepressive toxicity result is given as “remarkable myelodepressive toxicity”.
Take `CC[C@]1(O)C[C@H]2CN(CCc3c([nH]c4ccccc34)[C@@](C(=O)OC)(c3cc4c(cc3OC)N(C=O)[C@H]3[C@@](O)(C(=O)OC)[C@H](OC(C)=O)[C@]5(CC)C=CCN6CC[C@]43[C@@H]65)C2)C1` [vincristine]: in series [8], the “resistance of the LoVo/DX subline” value is recorded as “resistant”.
